Here are results for twelve molecules from patent US10675256B2, “Methods for inhibiting conversion of choline to trimethylamine (TMA)” (The Procter & Gamble Company, priority 2017, dated 2020).

SMILES strings stand for the structures. Read-outs that look alike come from different tables or passages of the source.

Assay [1] concerns Proteus mirabilis 29906 (Pm) lysate. The assay can be described thus: Inhibition of formation of TMA from choline in Proteus mirabilis lysate (EXAMPLE 2). It counts as biochemical. To be noted: Proteus mirabilis 29906 lysate, d9-choline chloride substrate, 37° C. for two hours; read-out: TMA Inhibition (IC50, mol/L).
In assay [2] the test system is human fecal polymicrobial community. The assay can be described thus: Human fecal polymicrobial incubation with d9-choline, TMA inhibition (EXAMPLE 3). To be noted: human fecal slurry 0.2% (w/v), 50 μM d9-choline chloride, 20 hours at 37° C., anaerobic; read-out: TMA Inhibition (IC50, mol/L). Type of assay: cell-based. Here is the method:
Human fecal polymicrobial incubation with deuterium labeled choline compound screening method, including cell viability assay. All materials were pre-reduced in an anaerobic chamber for 24 hours before using in the experiments and experimental procedures were performed under anaerobic conditions (chamber purged with 85% nitrogen, 5% hydrogen, 10% carbon dioxide).
Human fecal samples were collected from a healthy volunteer with no chronic illnesses, blood borne diseases or active infections. The volunteer had not received antibiotics within two months prior to donation and provided written informed consent. Samples were diluted to make a 20% (w/v) fecal slurry by resuspension of the feces in a media containing 3% (w/v) tryptic soy broth, 1% (w/v) trehalose, pH 7.3. The fecal slurry was homogenized and filtered by hand using a stomacher bag with an integrated 170 μm membrane. DMSO (5% (w/v)) was added to the filtered slurry and aliquots were stored in cryogenic vials at −80° C. until use. Frozen fecal slurries were diluted to 0.2% (w/v) with M9 media (Na2HPO4 (6 g/L), KH2PO4 (3 g/L), NaCl (0.5 g/L) with addition of 0.1 mM CaCl2 and 1 mM MgSO4) and dispensed (1 mL) into deep well 96-well plates. Diluted fecal slurries containing 50 μM d9-choline chloride and compounds in doses ranging from 500 μM to 3.81 nM were sealed and incubated at 37° C. with shaking. After 20 hours, an aliquot of the fecal polymicrobial community was analyzed for viability using PrestoBlue cell viability reagent (Thermo Fisher Scientific, USA) as described below. The reaction plates were subsequently centrifuged (4000×g at 4° C. for 12 min) to pellet fecal material and 150 μl aliquots were transferred and quenched with addition of formic acid to 1% (v/v). All fecal processing and polymicrobial assay steps were performed in an anaerobic environment. The products were determined by LC/MS/MS and IC50 values were calculated as described previously for detection and analysis of TMA and d9-TMA in EXAMPLE 2.

The target of assay [3] is T1, recombinant D. alaskensis Cut C/D lysate (Oleidesulfovibrio alaskensis, UniProt Q30W70).
T1 construct: made in house
T1 sequence (Q30W70 whole entry): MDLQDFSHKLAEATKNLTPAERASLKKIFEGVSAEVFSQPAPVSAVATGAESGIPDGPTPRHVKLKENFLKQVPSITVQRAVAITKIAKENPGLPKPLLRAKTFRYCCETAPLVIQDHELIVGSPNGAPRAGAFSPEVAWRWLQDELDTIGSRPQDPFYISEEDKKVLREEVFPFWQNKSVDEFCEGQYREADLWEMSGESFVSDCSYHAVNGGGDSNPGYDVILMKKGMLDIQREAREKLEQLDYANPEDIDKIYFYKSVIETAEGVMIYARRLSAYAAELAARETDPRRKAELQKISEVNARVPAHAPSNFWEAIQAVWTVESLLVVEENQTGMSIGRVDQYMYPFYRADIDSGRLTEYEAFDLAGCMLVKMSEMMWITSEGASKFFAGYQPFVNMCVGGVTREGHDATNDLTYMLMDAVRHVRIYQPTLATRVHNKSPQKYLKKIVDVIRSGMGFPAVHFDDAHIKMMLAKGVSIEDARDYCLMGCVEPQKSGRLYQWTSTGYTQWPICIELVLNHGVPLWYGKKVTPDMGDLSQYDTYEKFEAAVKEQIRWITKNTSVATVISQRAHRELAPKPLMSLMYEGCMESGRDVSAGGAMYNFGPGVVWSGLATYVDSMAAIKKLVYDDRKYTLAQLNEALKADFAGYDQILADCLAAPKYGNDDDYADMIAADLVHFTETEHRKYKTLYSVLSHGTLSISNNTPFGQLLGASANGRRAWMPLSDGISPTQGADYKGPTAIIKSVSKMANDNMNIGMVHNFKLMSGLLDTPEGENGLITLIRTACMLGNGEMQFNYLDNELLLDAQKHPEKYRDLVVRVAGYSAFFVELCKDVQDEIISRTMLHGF
The assay can be described thus: Inhibition of conversion of choline to TMA by recombinant D. alaskensis Cut C/D lysate (EXAMPLE 5). It counts as biochemical. As for the experimental part:
(§1) Ability of compounds to inhibit the conversion of choline to TMA in cell lysates or whole cells were determined using methods as described in Wang, Z, Roberts, A B, Buffa J A, et al. (2015) Non-lethal inhibition of gut microbial trimethylamine production for the treatment of atherosclerosis, Cell 163: 1585-1595. Briefly, efficacy was measured as IC50 (nM) by inhibition of conversion of choline to TMA metabolized by recombinant P. mirabilis Cut C/D lysate; recombinant D. alaskensis Cut C/D lysate, or whole cell wild-type P. mirabilis.

Assay [4] relates to whole cell wild-type P. mirabilis. As to the kind of experiment: Inhibition of conversion of choline to TMA by whole cell wild-type P. mirabilis (EXAMPLE 5). Type of assay: cell-based. The settings on record: Proteus mirabilis, read-out: EC50 (mol/L) whole cell wild-type P. mirabilis. Here is the method:
as §1

The target of assay [5] is recombinant P. mirabilis Cut C/D lysate (Proteus mirabilis, UniProt B4EYG1). The assay can be described thus: Inhibition of conversion of choline to TMA by recombinant P. mirabilis Cut C/D lysate (EXAMPLE 5). Type of assay: biochemical. As for the experimental part:
as §1

In assay [6] the test system is conversion of choline to TMA. The assay can be described thus: Rapid preclinical method, d9-choline challenge in mice (EXAMPLE 6). It counts as in vivo. To be noted: oral gavage with 2 mg d9-Choline, plasma at 3 hr. As for the experimental part: Challenge: C57bl/6 female mice (8 wk of age ˜20 g BW) were maintained in accordance with the NIH guidelines in a 12:12 hr light:dark cycle on normal chow diet were placed in a clean cage without food ˜1 hr prior to gavage. […] Food was returned after a 2 hr fast (1 hr after gavage administration). Blood (30 μL) was collected into a heparinized capillary tube 2, 3 and 4 hours after gavage. Blood was kept at 4° C., then spun using a centrifuge (5 min in centrifuge designed to capillary tubes) to separate plasma and hematocrit within 4 hours after collection. Plasma samples were stored at −80° C. Concentration of d9 Choline, d9TMA and d9TMAO was measured by LC-MS/MS.
Flora Normalization: Twenty four hours post-gavage mice were placed in a clean cage and fecal material from conventional mice was spread in all the cages.

Assay [7] concerns plasma TMAO. The assay can be described thus: Preclinical screening method, plasma TMAO in mice on 1% choline diet (EXAMPLE 4). Type of assay: in vivo, mice (C57bl/6). To be noted: 1% Choline Added diet, oral gavage 310 mg/kg/day, 3 days, blood 20 hours post gavage. Here is the method:
Starting at day 0, mice (C57bl/6, ˜19 g, 10 wk of age; n=5/group) were maintained in accordance with the NIH guidelines in a 12:12 hr light:dark cycle and provided with 1% Choline Added diet (Envigo custom formulation prepared, similar to Teklad Global Rodent Diet 2018) ad libitum. Concurrent with introduction of the diet, mice were gavaged once daily orally using a 1.5″ 22G ball-tip curved feeding needle to administer compound in 200 μl or less of water at one or multiple of the dose 0, 1.0, 3.1, 10, 31, 100 or 310 mg/kg/day. Urine was collected once daily in the morning. Animals were restrained by hand and bladder was expressed by gentle palpation of the pelvic region. […]
For measurement of TMA in plasma, samples were acidified (10 mM HCl final) prior to storage at −80° C. TMAO and TMA and their d9-isotopologues were quantified using stable isotope dilution HPLC with on-line electrospray ionization tandem mass spectrometry ([…]) methods as described in (Wang Z, Klipfell E, Bennett B J, et al. (2011) Gut flora metabolism of phosphatidylcholine promotes cardiovascular disease. Nature 472:57-63) using d4(1,1,2,2)-choline, d3(methyl)-TMAO, and d3(methyl)-TMA as internal standards. […]

recombinant P. mirabilis Cut C/D lysate, sequence (B4EYG1 entry or part of it): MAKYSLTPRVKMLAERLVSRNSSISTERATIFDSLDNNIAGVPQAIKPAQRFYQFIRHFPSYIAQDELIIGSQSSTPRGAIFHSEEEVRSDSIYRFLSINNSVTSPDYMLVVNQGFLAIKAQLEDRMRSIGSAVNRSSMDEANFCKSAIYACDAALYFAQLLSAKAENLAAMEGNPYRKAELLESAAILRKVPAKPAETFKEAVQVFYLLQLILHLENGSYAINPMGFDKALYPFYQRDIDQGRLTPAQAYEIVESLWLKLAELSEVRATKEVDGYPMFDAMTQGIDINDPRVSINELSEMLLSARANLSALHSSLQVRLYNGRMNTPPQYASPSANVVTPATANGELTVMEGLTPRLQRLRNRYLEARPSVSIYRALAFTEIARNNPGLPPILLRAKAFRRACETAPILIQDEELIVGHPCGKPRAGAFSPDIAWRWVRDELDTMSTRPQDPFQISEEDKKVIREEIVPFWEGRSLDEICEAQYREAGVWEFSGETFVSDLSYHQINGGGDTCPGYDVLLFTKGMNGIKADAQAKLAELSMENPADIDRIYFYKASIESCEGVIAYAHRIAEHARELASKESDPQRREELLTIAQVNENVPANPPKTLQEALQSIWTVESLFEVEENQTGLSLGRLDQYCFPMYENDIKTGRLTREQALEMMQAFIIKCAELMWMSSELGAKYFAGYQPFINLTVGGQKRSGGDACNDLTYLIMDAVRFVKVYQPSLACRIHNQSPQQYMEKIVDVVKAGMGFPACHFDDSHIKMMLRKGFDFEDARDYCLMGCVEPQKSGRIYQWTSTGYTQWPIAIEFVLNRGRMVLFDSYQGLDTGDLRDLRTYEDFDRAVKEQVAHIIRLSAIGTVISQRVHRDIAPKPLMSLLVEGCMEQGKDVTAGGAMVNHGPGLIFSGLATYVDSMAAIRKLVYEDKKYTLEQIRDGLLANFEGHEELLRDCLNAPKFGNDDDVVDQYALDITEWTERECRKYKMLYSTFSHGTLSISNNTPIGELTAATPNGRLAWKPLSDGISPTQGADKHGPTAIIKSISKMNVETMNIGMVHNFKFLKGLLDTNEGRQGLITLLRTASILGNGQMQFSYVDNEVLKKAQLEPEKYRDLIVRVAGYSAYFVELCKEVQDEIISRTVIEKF
recombinant P. mirabilis Cut C/D lysate, sequence (B4EYG0 entry or part of it, further chain): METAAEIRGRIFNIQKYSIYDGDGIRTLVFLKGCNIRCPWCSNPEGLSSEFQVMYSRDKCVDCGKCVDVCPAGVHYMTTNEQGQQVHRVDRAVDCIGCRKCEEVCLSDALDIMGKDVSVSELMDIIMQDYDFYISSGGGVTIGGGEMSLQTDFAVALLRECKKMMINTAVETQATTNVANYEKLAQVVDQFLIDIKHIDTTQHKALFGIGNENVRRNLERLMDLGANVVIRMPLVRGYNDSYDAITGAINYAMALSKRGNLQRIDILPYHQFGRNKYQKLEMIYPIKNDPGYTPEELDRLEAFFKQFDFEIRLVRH

Turning to `COC(=O)C(=O)C[N+](C)(C)C1CC1` [compound 6, N-(3-methoxy-2,3-dioxopropyl)-N,N-dimethylcyclopropanaminium], the IC50 in assay [1] was found to be 4.65 µM.
For `COC(=O)C[N+](C)(C)C1CC1` [compound 4, N-(2-methoxy-2-oxoethyl)-N,N-dimethylcyclopropanaminium], the IC50 in assay [2] was 134 µM; in assay [1] it was 89.2 µM.
In the case of `C#CC[N+](C)(C)C1CC1` [compound 3, N,N-dimethyl-N-(prop-2-yn-1-yl)cyclopropanaminium], the IC50 in assay [2] turned out to be 0.428 µM; in assay [1] it was 0.0331 µM.
For `C=CC[N+](C)(C)C1CC1` [compound 2, N-allyl-N,N-dimethylcyclopropanaminium], the IC50 worked out at 53.2 µM in assay [2] and 0.00398 µM in assay [1].
As to `C#CC[N+](C)(C)C1CC1` [ID 3, N,N-dimethyl-N-(prop-2-yn-1-yl)cyclopropanaminium bromide], the values for the IC50 in assay [3] and in assay [5] were 0.11 µM and 0.15 µM, respectively. In addition, in assay [4] (inhibition of conversion of choline to TMA), the EC50 was found to be 0.038 µM. The “Calculated EC50 (mg/kg) compared to Vehicle Control” value in assay [6] was 0.04 mg/kg. The “Remaining plasma TMAO as a percentage of plasma TMAO in same day vehicle control (% of control remaining)” value in assay [7] is on record as 23%.
Take `C=C(C[N+](C)(C)C1CC1)C(=O)OC` [compound 5, N-(2-(methoxycarbonyl)allyl)-N,N-dimethylcyclopropanaminium]: the IC50 in assay [2] was 166 µM; in assay [1], 50.4 µM.
Turning to `CCOC(=O)CCCCC[N+](C)(C)C1CC1` [compound 9, N-(6-ethoxy-6-oxohexyl)-N,N-dimethylcyclopropanaminium], in assay [1], the IC50 came to 945 µM.
For the molecule `C[N+](C)(CCO)C1CC1` [ID 1, Cyclopropane-dimethyl-ethanolamine iodide], the IC50 in assay [3] stood at 0.087 µM; in assay [5], 0.0062 µM. Besides, the EC50 in assay [4] was 0.0481 µM. Besides, the “Calculated EC50 (mg/kg) compared to Vehicle Control” value in assay [6] is on record as 0.75 mg/kg. Further, the “Remaining plasma TMAO as a percentage of plasma TMAO in same day vehicle control (% of control remaining)” value in assay [7] is on record as 5%.
Turning to `C[N+](C)(CF)C1CC1` [N-(fluoromethyl)-N,N-dimethylcyclopropanaminium iodide], the figures for the IC50 in assay [3], in assay [5] and in assay [1] were 45 µM, 21 µM and 60 µM, respectively.
`C[N+](C)(CC(N)=O)C1CC1` [compound 8, N-(2-amino-2-oxoethyl)-N,N-dimethylcyclopropanaminium]: the IC50 in assay [1] turned out to be 202 µM.
For the molecule `C[N+](C)(CCO)C1CC1` [compound 1], the IC50 stood at 135 µM in assay [2] and 0.000251 µM in assay [1].
As to `C#CC[N+]1(C2CC2)CCOCC1` [compound 10, 4-cyclopropyl-4-(prop-2-yn-1-yl)morpholin-4-ium], in assay [1], the IC50 came to 1.28 µM.
